Entries after “also recorded” stand apart in the source; their conditions may differ.
What was measured:
[1] = system: balloon injured rat carotid arteries (neointimal hyperplasia); assay: Balloon injury of rat carotid arteries, local heparin delivery with or without electroporation, arterial morphometry at day 28; type: in vivo; settings: for Active lumen area / Intimal wall thickness / Mean intimal area / Medial area / Intima/media thickness ratio: day 28, mean ± SEM; for Neointima formation (in words): 28 days
Description: Mature adult male Sprague-Dawley rats (Harlan, San Diego, Calif.) with an average body weight of 423.8±8.6 (SEM) gm were housed in individual cages in light-dark cycled, temperature-controlled rooms. Standard laboratory chow and water were available ad lib. After a minimum of 7 days acclimatization, the rats were anesthetized with an intramuscular injection of ketamine, 90 mg/kg (Phoenix, St. Joseph, Mo.) and xylazine, 15 mg/kg (Fermenta, Kansas City, Mo.). After anesthesia, they were strapped supine on a surgical table with body temperature maintained at 37° C. using a thermostatic blanket. The animals breathed spontaneously and Lead II electrocardiogram was monitored throughout the experiment. […] All procedures conformed to the guiding principles of the American Physiological Society and Institutional Animal Care and Use Committee (Department of Health and Human Services, National Institutes of Health).
Neointimal hyperplasia in rats was induced by a technique described earlier by Clowes et al. (A. W. Clowes and M. M. Clowes, supra). Briefly, the left and right common carotid arteries (CCA) were isolated through cervical incision. After isolation of the arteries, the left CCA at the thoracic entry point was temporarily clamped with a bulldog clip. The right CCA served as a control artery and was not surgically manipulated. The left CCA was catheterized through a proximal incision at the junction of the internal and external carotid arteries with a 2F Fogarty embolectomy catheter (Baxter Healthcare Corporation, Irvine, Calif.). The catheter was advanced to the distal CCA, inflated with 0.3 ml of ambient air for 30 sec each time, and retracted to the internal carotid-external carotid junction three times, with one rotation after each passage to ensure uniform injury of the arterial wall. The Fogarty catheter was then withdrawn and exchanged for a porous balloon electroporation (PBE) catheter.
The PBE catheter (manufactured by Danforth Biomedical, Santa Clara, Calif. as per design provided by Genetronics, Inc., San Diego, Calif.) is comprised of a 2F, triple-lumen shaft with a porous 1.5 cm long PET balloon at the distal end. Catheter lumens are used for passage of a 0.014″ guide wire for balloon inflation and deflation and as a conduit for the lead to the central electrode inside the balloon. The balloon has an inflated diameter of 1.4 mm, with four rows of 7 holes each (nominal hole size: 15-25 μm). The balloon serves as a reservoir for the heparin-containing composition. The central electrode inside the balloon is a coiled silver wire wrapped tightly and densely around the catheter shaft, over a length of approximately 10 mm. This balloon electrode acts as the cathode and the inserted guidewire as the anode. The distance between the distal end of the balloon electrode and the proximal end of the bare zone of the conductive guidewire was 4 mm (FIG. 9).
Following balloon catheter injury of the left CCA, rats were divided into three groups. Groupl received local intracarotid delivery of heparin (Elkins-Sinn, Cherry Hill, N.J.), but no electrical pulsing (positive untreated test: H+E−; H stands for heparin and E for electrical pulsing; + or − designate […] of H or E, respectively). Group 2 received a sequence of four electroporative pulses in the presence of heparin (positive treated test: H+E+). The uninjured right CCA of all animals comprised Group 3 which received neither drug nor electrical pulses and served as negative untreated control (H−E−).
Immediately following balloon injury of the vessel, a PBE catheter was introduced into the injured portion of the left CCA after placement of a temporary clip at the distal end of the balloon injured segment. Heparin (200 IU in 0.1 ml) (Elkins-Sinn) was delivered through the balloon pores into the arterial wall over a period of approx. 20 seconds. […]

[2] = system: porcine artery; settings: cited from earlier work
[3] = system: porcine carotid artery; settings: pig, in vivo; cited from earlier work
[4] = Group 2 H+E+ Inj+, with electroporation

## heparin
[1]; Group 1 H+E− Inj+, no pulsing
  Active lumen area: 0.295 sq. mm
  Intimal wall thickness: 541 μm
  Mean intimal area: 0.778 sq. mm
  Medial area: 0.254 sq. mm
[1]; Group 1 H+E− Inj+: heparin 200 IU local, no electrical pulsing
  Intima/media thickness ratio: 2.96
[1]; [4]
  Active lumen area: 0.902 sq. mm
  Intimal wall thickness: 26.10 μm
  Mean intimal area: 0.067 sq. mm
  Medial area: 0.338 sq. mm
[1]; Group 2 H+E+ Inj+: heparin 200 IU local plus 4 pulses 100 V 20 ms
  Intima/media thickness ratio: 0.25
[1]; H+E+ group
  Slope of linear regression, active lumen area versus IEL area: 0.57
[1]; H+E+: heparinized, electroporated balloon injured arteries, versus H+E−
  Neointima formation (in words): significant reduction in the volume of neointima; also recorded: vastly reduced neointimal thickness; also recorded: strong reduction in the formation of neointimal volume
[1]; H+E− group
  Slope of linear regression, active lumen area versus IEL area: 0.17
[1]; H+E−: heparinized, non-electroporated balloon injured arteries
  Neointima formation (in words): marked proliferation of neointima; also recorded: pronounced neointima formation
[1]; all groups
  Pre-sacrificial electrocardiogram (Lead II): did not reveal any rhythm abnormality
[1]; electroporation-enhanced delivery of heparin
  Period of inhibition of neointimal growth and favorable remodeling: at least 28 days
[1]; rats, behavior and weight
  Tolerability of surgery and arterial electroporation: tolerated the surgery and arterial electroporation well
[2]; approximately 1 hour after iontophoretic delivery
  Fraction of drug washed out: 96%
[2]; heparin 1000 U to 20,000 U/ml
  Concentration remaining in the vessel, IO versus passive delivery: greater concentrations remaining in the vessel
[2]; heparin 1000 U/ml, coronary angiography, blood pressure, cardiac rhythm
  Safety of iontophoretic delivery: safe and well tolerated
[2]; pig balloon injury model, following IO delivery
  Platelet deposition: reduced

## hirudin
[3]
  Fraction of drug washed out: 80%
  Level in the artery: the same as for passive delivery

Reference: patent publication US20020183684A1, “Electroporation-enhanced inhibition of vascular neointimal hyperplasia” (GENETRONICS, priority 1996, published 2002)
